Measured values from PubChem BioAssay AID248 (DTP/NCI, 2004).
Where “and” joins values, the source holds several entries; their conditions need not be identical. Equal entries are not always repeated. Inconclusive results and toxic doses are left out. No stated cut-off is given here; in the data, active means T/C of 150% or more; inactive means T/C below 125%.

Tested on: L1210 leukemia ip in BDF1 mice, survival T/C
Assay: NCI In Vivo Anticancer Drug Screen. Data for tumor model L1210 Leukemia (intraperitoneal) in B6D2F1 (BDF1) mice
Settings: endpoint: mean survival time, higher = longer survival
Outline: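 Value reflects the ratio of survival in compound-treated mice to survival in vehicle-treated controls, with both groups carrying the same transplanted tumor.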

[1] = dose: 100.0 mg/kg/injection, schedule: Q01DX001 (ip), vehicle: carboxymethylcellulose (CMC)
[2] = dose: 100.0 mg/kg/injection, schedule: Q01DX009 (ip), vehicle: Klucel (hydroxypropylcellulose) (HPC)
[3] = dose: 100.0 mg/kg/injection, schedule: Q04DX003 (ip), vehicle: saline
[4] = dose: 200.0 mg/kg/injection, schedule: Q01DX001 (ip), vehicle: carboxymethylcellulose (CMC)
[5] = dose: 200.0 mg/kg/injection, schedule: Q01DX009 (ip), vehicle: Klucel (hydroxypropylcellulose) (HPC)
[6] = dose: 200.0 mg/kg/injection, schedule: Q04DX003 (ip), vehicle: saline
[7] = dose: 400.0 mg/kg/injection, schedule: Q01DX001 (ip), vehicle: carboxymethylcellulose (CMC)
[8] = dose: 400.0 mg/kg/injection, schedule: Q04DX003 (ip), vehicle: saline
[9] = dose: 100.0 mg/kg/injection, schedule: Q04DX002 (ip), vehicle: Klucel (hydroxypropylcellulose) (HPC)

Measured: T/C

Nc1ncnc2c1ncn2C1OC(CO)C(O)C1O (configuration not stated)
inactive: dose: 6.25 mg/kg/injection, schedule: Q01DX009 (ip), vehicle: Klucel (hydroxypropylcellulose) (HPC) 115 % of control | dose: 7.8 mg/kg/injection, schedule: Q#A X012 (ip), vehicle: methylcellulose (MC) 102 % of control and 109 % of control | dose: 12.5 mg/kg/injection, schedule: Q01DX009 (ip), vehicle: Klucel (hydroxypropylcellulose) (HPC) 112 % of control | dose: 12.5 mg/kg/injection, schedule: Q04DX002 (ip), vehicle: Klucel (hydroxypropylcellulose) (HPC) 100 % of control | dose: 13.0 mg/kg/injection, schedule: Q#A X012 (ip), vehicle: methylcellulose (MC) 103 % of control and 109 % of control | dose: 22.0 mg/kg/injection, schedule: Q#A X012 (ip), vehicle: methylcellulose (MC) 102 % of control and 110 % of control | dose: 25.0 mg/kg/injection, schedule: Q01DX001 (ip), vehicle: saline 103 % of control | dose: 25.0 mg/kg/injection, schedule: Q01DX009 (ip), vehicle: Klucel (hydroxypropylcellulose) (HPC) 100 % of control and 108 % of control | dose: 25.0 mg/kg/injection, schedule: Q04DX002 (ip), vehicle: Klucel (hydroxypropylcellulose) (HPC) 107 % of control | dose: 25.0 mg/kg/injection, schedule: Q04DX003 (ip), vehicle: saline 105 % of control | dose: 36.0 mg/kg/injection, schedule: Q#A X012 (ip), vehicle: methylcellulose (MC) 106 % of control and 108 % of control | dose: 50.0 mg/kg/injection, schedule: Q01DX001 (ip), vehicle: saline 100 % of control | dose: 50.0 mg/kg/injection, schedule: Q01DX009 (ip), vehicle: Klucel (hydroxypropylcellulose) (HPC) 101 % of control and 107 % of control | dose: 50.0 mg/kg/injection, schedule: Q04DX002 (ip), vehicle: Klucel (hydroxypropylcellulose) (HPC) 97 % of control | dose: 50.0 mg/kg/injection, schedule: Q04DX003 (ip), vehicle: saline 116 % of control | dose: 60.0 mg/kg/injection, schedule: Q#A X012 (ip), vehicle: methylcellulose (MC) 106 % of control | [1] 100 % of control | dose: 100.0 mg/kg/injection, schedule: Q01DX001 (ip), vehicle: saline 100 % of control and 110 % of control | dose: 100.0 mg/kg/injection, schedule: Q01DX005 (ip), vehicle: saline 106 % of control and 95 % of control and 92 % of control | [2] 103 % of control | dose: 100.0 mg/kg/injection, schedule: Q01DX009 (ip), vehicle: saline 94 % of control | [3] 104 % of control and 112 % of control | dose: 118.0 mg/kg/injection, schedule: Q01DX005 (ip), vehicle: water 112 % of control | dose: 118.0 mg/kg/injection, schedule: Q01DX009 (ip), vehicle: water 112 % of control | dose: 150.0 mg/kg/injection, schedule: Q01DX009 (ip), vehicle: saline 105 % of control | dose: 177.0 mg/kg/injection, schedule: Q01DX005 (ip), vehicle: water 114 % of control | dose: 177.0 mg/kg/injection, schedule: Q01DX009 (ip), vehicle: saline with Tween-80 120 % of control | dose: 177.0 mg/kg/injection, schedule: Q01DX009 (ip), vehicle: water 111 % of control | [4] 100 % of control and 107 % of control | dose: 200.0 mg/kg/injection, schedule: Q01DX005 (ip), vehicle: saline 95 % of control and 101 % of control and 87 % of control | [5] 97 % of control | dose: 200.0 mg/kg/injection, schedule: Q01DX009 (ip), vehicle: carboxymethylcellulose (CMC) 114 % of control | dose: 200.0 mg/kg/injection, schedule: Q01DX009 (ip), vehicle: saline 102 % of control | [6] 94 % of control | dose: 266.0 mg/kg/injection, schedule: Q01DX005 (ip), vehicle: water 115 % of control | dose: 266.0 mg/kg/injection, schedule: Q01DX009 (ip), vehicle: saline with Tween-80 124 % of control | dose: 266.0 mg/kg/injection, schedule: Q01DX009 (ip), vehicle: water 112 % of control | dose: 300.0 mg/kg/injection, schedule: Q01DX009 (ip), vehicle: saline 102 % of control | [7] 106 % of control and 109 % of control | dose: 400.0 mg/kg/injection, schedule: Q01DX005 (ip), vehicle: water 112 % of control | dose: 400.0 mg/kg/injection, schedule: Q01DX009 (ip), vehicle: Klucel (hydroxypropylcellulose) (HPC) 116 % of control | dose: 400.0 mg/kg/injection, schedule: Q01DX009 (ip), vehicle: saline 107 % of control | dose: 400.0 mg/kg/injection, schedule: Q01DX009 (ip), vehicle: water 117 % of control | [8] 88 % of control | dose: 500.0 mg/kg/injection, schedule: Q03HX024 (ip), vehicle: saline with Tween-80 124 % of control | dose: 600.0 mg/kg/injection, schedule: Q01DX005 (ip), vehicle: water 110 % of control | dose: 600.0 mg/kg/injection, schedule: Q01DX009 (ip), vehicle: saline 109 % of control | dose: 600.0 mg/kg/injection, schedule: Q01DX009 (ip), vehicle: water 119 % of control | dose: 600.0 mg/kg/injection, schedule: Q03HX024 (ip), vehicle: saline with Tween-80 113 % of control | dose: 800.0 mg/kg/injection, schedule: Q01DX001 (ip), vehicle: carboxymethylcellulose (CMC) 107 % of control | dose: 800.0 mg/kg/injection, schedule: Q01DX009 (ip), vehicle: Klucel (hydroxypropylcellulose) (HPC) 103 % of control | dose: 800.0 mg/kg/injection, schedule: Q01DX009 (ip), vehicle: carboxymethylcellulose (CMC) 122 % of control | dose: 900.0 mg/kg/injection, schedule: Q01DX005 (ip), vehicle: water 115 % of control | dose: 900.0 mg/kg/injection, schedule: Q01DX009 (ip), vehicle: water 122 % of control | dose: 1000.0 mg/kg/injection, schedule: Q01DX009 (ip), vehicle: carboxymethylcellulose (CMC) 112 % of control | dose: 1200.0 mg/kg/injection, schedule: Q01DX009 (ip), vehicle: carboxymethylcellulose (CMC) 118 % of control | dose: 1600.0 mg/kg/injection, schedule: Q01DX001 (ip), vehicle: carboxymethylcellulose (CMC) 112 % of control

ClCc1nc2ccccc2s1
inactive: [2] 91 % of control | [9] 92 % of control | [5] 98 % of control | dose: 200.0 mg/kg/injection, schedule: Q04DX002 (ip), vehicle: Klucel (hydroxypropylcellulose) (HPC) 103 % of control | dose: 400.0 mg/kg/injection, schedule: Q04DX002 (ip), vehicle: Klucel (hydroxypropylcellulose) (HPC) 103 % of control

CCOC(=O)C(NC(C)=O)(C(=O)OCC)C(C)C(O)c1ccc(OC)c(OC)c1O (configuration not stated)
inactive: [3] 92 % of control | [6] 113 % of control | [8] 103 % of control

CCCCN(CCCC)CCNCC(Cc1ccccc1)c1ccccc1 (configuration not stated)
inactive: [9] 93 % of control

CCOC(=O)N1C2OC(C(COC(C)=O)=C2COC(C)=O)N1C(=O)OCC
inactive: dose: 12.5 mg/kg/injection, schedule: Q04DX002 (ip), vehicle: saline 99 % of control | dose: 25.0 mg/kg/injection, schedule: Q04DX002 (ip), vehicle: saline 99 % of control | dose: 50.0 mg/kg/injection, schedule: Q04DX002 (ip), vehicle: saline 99 % of control

O=c1[nH]nc(-c2ccc3c(c2)Cc2ccccc2-3)c2ccccc12
inactive: [1] 100 % of control | [4] 94 % of control | [7] 97 % of control
